From patent US8063026B2, “Method of palliating lower urinary tract infections by treatment with mannan oligosaccharides” (priority 2006, dated 2011)

Test system: UTI symptoms
Assay: Treatment of UTI symptoms in a patient (case reports)
Type: in vivo, human
Conditions: recurrent UTI episodes about 48 hours after sex, 1 tablet twice daily for five days
Protocol: A patient had been experiencing urinary tract infections since 1999. Episodes were very painful and invariably occurred about 48 hours after having sex. […] This pattern persisted for 6 years.
During an episode of UTI symptoms (urge to urinate; severe burning with urination; blood in urine), 100 mg MOS was administered to a patient (weighing approximately 50 kg) as a tablet (BioMOS® tablets, Alltech)-1 tablet before and after sex, plus three tablets per day.
Beginning during a symptom-free period, 100 mg MOS was administered to a patient (weighing approximately 50 kg) as a tablet (BioMOS® tablets, Alltech), once per day plus one pill with sex.
During a symptom-free period, 500 mg of MOS was administered as a capsule (capsules prepared from bulk CitriStim™, Archer Daniels Midland Alliance Nutrition, Inc., Quincy, Ill.; 1 or 2 capsules daily). […] Two capsules (CitriStim) were administered (three hours apart), followed 2 hours later by 100 mg MOS in tablet form (BioMOS® tablets, Alltech). […] Two MOS tablets were administered that morning (4 hours apart). In the late afternoon, a CitriStim capsule was administered, and one capsule was administered twice the following day.

Compound | Relief of UTI symptoms
O=C(O)c1cn(C2CC2)c2cc(N3CCNCC3)c(F)cc2c1=O [Cipro®, ciprofloxacin] | quickly relieve symptoms
trimethoprim-sulfamethoxazole [Bactrin DS®] | quickly relieve symptoms
